Laboratory results taken from patent US7534558B2, “In vitro diagnostic test for enterovirus infections” (Universite de Lille 2 Droit Et Sante, priority 2003, dated 2009).

What was measured:
[1] = test system: CVB4E2/plasma induced IFNα production by PBMCs; experiment: CVB4E2/plasma induced IFNα production by PBMCs (DELFIA); type: cell-based, human
Method: VP4, H antigen or mock proteins were preincubated for 1 h at 37° C. at different concentrations with plasma from 5 healthy subjects diluted at optimal dilution (1/10 or 1/100 ). CVB3 or CVB4 were then added for 1 hour before incubating with PBMCs. […] On the contrary, the mock proteins isolated from non-infected Hep-2 cells have non effect on the IFNα production.
(§1) PBMCs separated from whole heparinated blood are distributed into microwells (plate of 96 wells), at the rate of 5 to 8.10^5 cell in 100 μl of supplemented RPMI medium by well. The infection of PBMC is made with a final volume of 100 μl of preparation in each well. After incubation for 48 h at 37° C. under a 5% CO2 atmosphere and 90% humidity, the supernatant is harvested and used immediately for IFNα dosage, or clarified by centrifugation for 10 minutes at 180×g and stored at −80° C. until dosage of the produced IFNα.
(§2) The concentration of the produced IFNα is determined with a sensitive and specific technique, the DELFIA method (Dissociation Enhanced Lanthanide FluoroImmmoAssay) (Rönnblom and al 1997).
(§3) The dosage of IFNα is performed following the DELFIA principle (Dissociation Enhanced Lanthanide FluoroImmunoAssay), based on a immunofluorescence in retarded phase method using antibodies binding IFNα of which one is labelled with europium. The use of an activation solution will release the europium conjugated with antibodies and emit a fluorescence proportional to the amount of produced IFNα and measured with a fluorometer (fluorometer LKB Wallac 1230 ARCOSO®, Turku, Finlande).
Monoclonal anti-IFNα antibodies LT 273 (5.4 mg/ml) and LT 293 (4.8 mg/ml) supplied by Dr Gunar Alm (Uppsala, Sweden) are coated to the bottom of the wells after an incubation for 12 hours at room temperature. These plates can be stored in a buffer at 4° C. or are used immediately. Standard samples of human IFNα are prepared with an “irrelevant” monoclonal mouse antibody IgG1 in order to establish the reference curve (10 measurements). The other samples to be analysed are added to each well (100 μl) with the dilution buffer and the “irrelevant” antibodies and incubated for 2 hours with gentle stirring at room temperature. The wells are washed 3 times with the washing solution. The antibody conjugated to europium (200 μl) is added to each well, left to incubate for 1 hour at room temperature with gentle stirring. The plate is washed 6 times with a washing solution. The activation solution (200 μl), added immediately after washing and left for 20 to 30 minutes for incubation in the well, causes a cleavage of the europium bound to the antibody fixed to IFNα, emitting a fluorescence measured with the fluorescence reader (LKB Wallac 1230 ARCUS®). The IFNα concentration will be calculated from the values of the measured fluorescence by means of the Graphpad program (San Diego, USA). The detection threshold of IFNα is of 0.5 IU/ml.
The plasma from a healthy donor (optimal dilution 1/10th or 1/100th) is pre-incubated for 1 hour at 37° C. with the recombinant VP4 protein of CVB4E2 (optimal concentration at 1 μg/ml). The whole is incubated again for one hour at 37° C. in the presence of the CVB4E2 virus (dilutions at 1/10th or 1/100th; viral titer at 10^13 TCID50/ml) then applied to the PBMCs, (5.10^5/well) to incubate for 48 hours.
In the same way, the plasma preparation preincubated for 1 hour and VP4 of CVB3 are incubated for 1 hour with CVB4E2 before infecting the PBMCs for 48 hours and determinating the amount of the produced IFNα.
The virus (CVB4E2 or CVB3) infected PBMCs in the presence of plasma are deemed to be positive controls of this experimentation. The negative controls are obtained with one well of PBMC alone, one well of virus CVB4B2 alone and one well of CVB3 alone.
The CVB4E2 induced IFNα production in cultures of PBMCs previously incubated in the presence of plasma from healthy subjects was measured. […]

[2] = test system: IFNα production by PBMCs; experiment: IFNα production by PBMCs with VP4 protein alone (control wells); type: cell-based, human; details: no virus, no plasma
Method: as §1, §2, §3
Monoclonal anti-IFNα antibodies LT 273 (5.4 mg/ml) and LT 293 (4.8 mg/ml) supplied by Dr Gunar Alm (Uppsala, Sweden) are coated to the bottom of the wells after an incubation for 12 hours at room temperature. […]

[3] = test system: anti-VP4 antibodies in plasmas or serums; experiment: ELISA of plasmas/serums on wells coated with VP4 protein or VP4 peptides; type: binding, human; details: diluted 1/50, antigen coated at 5 μg/ml, 490 nm
Method: 40 plasmas from non diabetic patients and 40 plasmas or serums from diabetic patients were assayed.
The VP4 protein or the 5 VP4 peptides, diluted at 5 μg/ml in PBS buffer pH=7.4, are coated in the wells of a microplate of 96 wells (FluoroMunc, MaxiSorp surface, NUNC, Danemark) at the rate of 100 μl/well. The plates are incubated for 1 hour at 37° C. under humid atmosphere, then left for 24 h at room temperature. After 3 washings with PBS buffer, the wells are saturated with 300 μl of saturation buffer for 1 hour at 37° C. under humid atmosphere, before washing 3 times with the washing buffer. Then 250 μl of post-coating buffer are added to each well and the plates are incubated for 24 h at room temperature, then stored at 4° C. until use.
The wells coated with the VP4 protein or the different peptides VP4 are washed 3 times with washing buffer in order to remove the post-coating solution. Then 100 μl of the plasmas or serums diluted to 1/50th in dilution buffer are added to different wells and the plates are incubated for 1 hour at 37° C. under humid atmosphere. Simultaneously, a negative control well containing 100 μl of dilution buffer is carried out. Then the wells are washed 3 times with the washing solution and 100 μl of secondary antibody solution are added to each well. After incubation for 1 h at 37° C. under humid atmosphere, the wells are washed 5 times with the washing solution and 100 μl of substrate solution are added to each well. The plates are incubated for 30 minutes at room temperature and in the dark. The coloured reaction is stopped by addition of 25 μl of H2SO4 2M (1M) per well and the plates are read in a plate reader at a wavelength of 490 nm.
ODs obtained for each serum with the VP4 protein and the different peptides VP4 were divided by the OD obtained with the negative control. The following Tables show the mean +/− standard deviation of the rates of OD obtained with the two series of assayed serums (Patient=diabetic patients, Control=not diabetic). (see FIGS. 8 à 10)

Substance: recombinant VP4 protein: recombinant VP4 protein of CVB4E2, made in E. coli as MBP-VP4 fusion and cleaved by Factor Xa
- IFNα production ([1]; CVB4E2 infection of PBMCs, healthy donor plasma preincubated 1 h with the VP4 protein before CVB4E2, 48 h, positive control 148 IU/ml): 8.5 IU/ml
- IFNα production in the presence of CVB4E2 ([1]; plasma 1/10 preincubated 1 h with VP4 recombinant protein of CVB4E2 diluted 1/10): collapsed
- IFNα production ([1]; protein at 0.01 μg/mL preincubated with plasma, then CVB4E2 (m.o.i. 1), PBMCs 48 h, mean +/- SD, three donors): 189.5+/−21.6 IU/mL
- IFNα production ([1]; protein at 0.1 μg/ml preincubated with plasma, then CVB4E2 (m.o.i. 1), PBMCs 48 h, mean +/- SD, three donors): 104.7+/−4.5 IU/mL
- IFNα production ([1]; protein at 1 μg/ml preincubated with plasma, then CVB4E2 (m.o.i. 1), PBMCs 48 h, mean +/- SD, three donors): 44.1+/−24.3 IU/mL
- IFNα production ([1]; protein at 10 μg/ml preincubated with plasma, then CVB4E2 (m.o.i. 1), PBMCs 48 h, mean +/- SD, three donors): 15.3+/−7.9 IU/mL
- IFNα production by PBMCs, protein alone [2]: do not lead to the IFNα production
- Mean value of OD ratio (OD / OD of negative control), ELISA ([3]; Control = 40 serums of non diabetic patients): 0.695
- Mean value of OD ratio (OD / OD of negative control), ELISA ([3]; Patient = 40 serums of diabetic patients): 2.119
